Data taken from patent publication USRE50282E1, “Specific modification of antibody with IgG-binding peptide” (KAGOSHIMA UNIVERSITY, priority 2015, dated 2025).
*1 amine or outer side, *2 acyl side, *3 side chain or, on linkers, in order; H or OH if unused. Where a SMILES comes first, the peptide text is derived from it. Bridges are numbered along the chain shown (N, C = ends). Where no end group is shown, it is not given here. [ ]: non-standard residue; d: D form. The star is where a group is joined. DSS = disuccinimidyl suberate, reactive NHS group, O=C(CCCCCCC(=O)*)ON1C(=O)CCC1=O; Dolaproine = CO[C@@H]([C@@H]1CCCN1)[C@@H](C)C(=O)O; Hexanoyl(6-maleimido) = O=C1C=CC(=O)N1CCCCCC(=O)*; Biotin = O=C1N[C@H]2[C@H](CS[C@H]2CCCCC(=O)*)N1; Dil = CC[C@H](C)[C@H](NC)[C@@H](CC(=O)O)OC; PABC = O=C(OCc1ccc(N[*:1])cc1)[*:2]; X1 = C[C@@H](N*)[C@@H](O)c1ccccc1; PEG5 = NCCOCCOCCOCCOCCOCCC(=O)O; Cit = NC(=O)NCCC[C@H](N)C(=O)O; NMeV = CN[C@H](C(=O)O)C(C)C

What was measured:
human IgG [1] = molecular target: T1, human IgG (Homo sapiens, UniProt P01857); type: binding; conditions: SPR; peptides N-terminally blocked with biotinylated PEG4; NHS group hydrolysed
Method: 0.4 M EDC (1-ethyl-3-(3-dimethylaminopropyl)-carbodiimide) and 0.1 M sulfo-NHS (sulfo-N-hydroxysuccinimide) were mixed in equal amounts and then injected onto a CM5 sensor chip loaded in BIAcore T200 (GE Healthcare Japan Corp.) for 7 minutes at a flow rate of 10 μl/ml to activate the sensor chip. IgG was immobilized thereonto in an amount of 4000 to 5000 in terms of RU value under conditions of pH 4.0 (10 mM sodium acetate). While a HBS-EP buffer solution (0.01 M HEPES, 0.15 M NaCl, 0.005% TWEEN® 20, and 3 mM EDTA, pH 7.0) was used, binding reaction was monitored by the injection of the peptide at a concentration of 10 nM to 2 μM for 180 seconds at a flow rate of 50 μl/ml. Then, dissociation reaction was assayed by washing with a buffer solution for 600 seconds. Binding parameters were analyzed using BIAevalution T100 software.

human IgG Fc = molecular target: T2, human IgG Fc (Homo sapiens, UniProt P01857); test: Cross-linking reaction with Fc analyzed by ion-exchange chromatography (Examples 6 and 7); type: biochemical; conditions: for unreacted form (peak 2) produced: 15 minutes
T2 construct: human IgG (Chugai Pharmaceutical Co., Ltd.) Fc solution; purchased Chugai Pharmaceutical Co., Ltd
Method: The reaction was terminated by the addition of 10 μL of 1 M Tris-HCl (pH 7.0). 50 μL of the reaction product was injected to NGC Chromatography system (Bio-Rad Laboratories, Inc.) connected with Shodex IEC SP-825 column, followed by gradient elution from a 25 mM acetate buffer (pH 4.5) to a 25 mM acetate buffer (pH 4.5) containing 1 M NaCl. The protein elution was monitored on the basis of absorbance at 215 nm. Each obtained peak was separated and subjected to molecular weight measurement by LC/MS.
20 μL of the obtained fraction of the peak was injected to Shimadzu LCMS-8030 connected with Waters ACQUITY UPLC BEH C8 (1.7 μm, 2.1 mm×100 mm) column, followed by gradient elution from 4% acetonitrile containing 0.1% formic acid to 60% acetonitrile containing 0.1% formic acid. The eluted peaks were subjected to mass spectrometry, and the masses were calculated by deconvolution from polyvalent ion peaks using analytical software.
1.0 μL (molar ratio: 1.0) of the DSG-modified IgG-binding peptide (4 mM) dissolved in DMF, prepared in Example 5 was added to 200 μL of a human IgG Fc solution prepared at pH 4.0 (25 mM acetate buffer solution), pH 5.5 (25 mM acetate buffer solution), or pH 7.0 (PBS), and the mixture was rapidly stirred and then reacted at room temperature. 1, 5, 10, or 30 minutes after the start of the reaction, the reaction was terminated by the addition of 10 μL of 1 M Tris-HCl (pH 7.0). 50 μL of the reaction product was injected to NGC Chromatography system (Bio-Rad Laboratories, Inc.) connected with Shodex IEC SP-825 column, followed by gradient elution from a 25 mM acetate buffer (pH 4.5) to a 25 mM acetate buffer (pH 4.5) containing 1 M NaCl. The protein elution was monitored on the basis of absorbance at 215 nm. On the basis of the obtained chromatogram, the percentage of each peak was calculated.

4D5-Fc antibody = conditions: PE-labeled streptavidin; dead cells excluded by 7-AAD
Method: (§1) HEK293 cells were transfected with pcDNA3.1/Zeo(+) carrying scFv-Fc gene comprising anti-Her2 scFv (4D5) linked to Fc genes, using Lipofectamine 2000, and cultured for 5 days. […] The cells were washed once with PBS containing 3% BSA and suspended in 100 μL of PBS containing 3% BSA. […] The cells were washed once again with PBS containing 3% BSA and then dispersed in 100 μL of PBS containing 3% BSA.

[2] = molecular target: T3, rabbit IgG (polyclonal antibody) (Oryctolagus cuniculus, UniProt P01870); test: Labeling of various IgG, SDS-PAGE and Western blot with HRP-labeled streptavidin (Example 13); type: binding; conditions: antibody:peptide 1:4; 30 minutes
T3 construct: purchased Thermo Fisher Scientific Inc

SK-BR3 cells [3] = conditions: peptide plus SA-PE label only
Method: as §1

human IgG [4] = molecular target: human IgG (Homo sapiens, UniProt P01861); test: Labeling of various IgG, SDS-PAGE and Western blot with HRP-labeled streptavidin (Example 13); conditions: human IgG4; antibody:peptide 1:4; 30 minutes
human IgG [5] = molecular target: human IgG (Homo sapiens, UniProt P01859); test: as above; conditions: human IgG2; antibody:peptide 1:4; 30 minutes
human IgG [6] = molecular target: T1, human IgG; test: as above; conditions: human monoclonal IgG1; antibody:peptide 1:4; 30 minutes
[7] = system: hIgA, bovine gelatin, or BSA; test: ELISA of reaction between labeled IgG-binding peptide and other plate proteins (Example 4); conditions: excess of labeled peptide reagent
Method: A 0.1 M NaHCO3 solution containing each protein (IgG (Chugai Pharmaceutical Co., Ltd.), IgA (Athens Research & Technology, Inc.), or bovine gelatin (Wako Pure Chemical Industries, Ltd.)) (50 ng (0.33 pmol)/μl/well) was added to wells of a 96-well microplate (Nunc® MaxiSorp), and the plate was left overnight at room temperature to adsorb each protein onto the surface of the plate. […] After a lapse of 1 hour, the reaction was terminated by the addition of 1 M Tris-HCl (pH 7.0) at 3 μL/well. SA-HRP (Vector Laboratories, Inc.) diluted 2000-fold with 0.5% BSA was added thereto at 50 μL/well and reacted at room temperature for 1 hour. Then, the plate was washed five times with 0.1% PBST. Then, a TMB solution (Wako Pure Chemical Industries, Ltd.) was used in the color development of HRP. After 5-minute chromogenic reaction, the absorbance at 450 nm was measured using an ELISA plate reader (model 680 microplate reader (Bio-Rad Laboratories, Inc.)).

hIgG = molecular target: T4, hIgG (Homo sapiens, UniProt P01857); test: ELISA of reaction between labeled IgG-binding peptide and plate-adsorbed IgG (Example 4)
T4 construct: purchased Chugai Pharmaceutical Co., Ltd
Method: The biotinylated IgG-binding peptide modified with DSG was added at a molar ratio of 2 to hIgG (50 ng) immobilized overnight at 4° C. with a 50 ng/50 μL solution. […] The binding was detected in the same way as in (A).

SK-BR3 cells [8] = test: Cell growth inhibition, Cell Counting Kit-8, 72 hours (Examples 11 and 12); type: cell-based; conditions: 0 to 500 nM
Method: After culture at 37° C. for 24 hours in a 5% CO2 incubator, 100 μL of a medium containing each concentration of the antibody-drug conjugate (ADC) prepared as described above was added to each well, and the cells were further cultured at 37° C. for 72 hours in a CO2 incubator. 10 μL of Cell Counting Kit-8 (Dojindo Laboratories) was added to each well. After incubation at 37° C. for 2 hours in a CO2 incubator, the absorbance at 450 nm was measured using a plate reader.
After culture at 37° C. for 24 hours in a 5% CO2 incubator, 100 μL of a medium containing each concentration of the antibody-drug conjugate (ADC) was added to each well, and the cells were further cultured at 37° C. for 72 hours in a CO2 incubator. 10 μL of Cell Counting Kit-8 (Dojindo Laboratories) was added to each well. After incubation at 37° C. for 2 hours in a CO2 incubator, the absorbance at 450 nm was measured using a plate reader.

human IgG (Homo sapiens, UniProt P01859), sequence (P01859 1-326 isoform P01859-1): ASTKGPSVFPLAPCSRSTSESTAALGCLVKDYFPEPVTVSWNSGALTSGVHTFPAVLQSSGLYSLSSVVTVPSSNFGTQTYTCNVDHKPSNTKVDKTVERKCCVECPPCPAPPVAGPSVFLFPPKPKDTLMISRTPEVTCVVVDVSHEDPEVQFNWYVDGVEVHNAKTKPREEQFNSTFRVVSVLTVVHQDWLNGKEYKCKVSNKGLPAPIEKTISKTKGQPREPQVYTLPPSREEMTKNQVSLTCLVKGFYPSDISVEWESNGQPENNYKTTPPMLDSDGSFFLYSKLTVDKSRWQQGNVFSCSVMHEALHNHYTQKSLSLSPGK
human IgG (Homo sapiens, UniProt P01861), sequence (P01861 1-327 isoform P01861-1): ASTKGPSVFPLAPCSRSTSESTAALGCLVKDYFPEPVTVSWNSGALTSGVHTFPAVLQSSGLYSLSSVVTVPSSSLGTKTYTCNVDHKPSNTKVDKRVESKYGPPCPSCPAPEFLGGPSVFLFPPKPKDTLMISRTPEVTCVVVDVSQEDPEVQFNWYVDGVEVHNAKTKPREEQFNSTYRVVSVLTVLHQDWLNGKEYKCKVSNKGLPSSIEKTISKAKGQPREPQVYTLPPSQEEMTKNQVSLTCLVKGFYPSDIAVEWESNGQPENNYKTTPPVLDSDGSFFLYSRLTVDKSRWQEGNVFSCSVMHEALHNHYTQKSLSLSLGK
T3 sequence (P01870 whole entry): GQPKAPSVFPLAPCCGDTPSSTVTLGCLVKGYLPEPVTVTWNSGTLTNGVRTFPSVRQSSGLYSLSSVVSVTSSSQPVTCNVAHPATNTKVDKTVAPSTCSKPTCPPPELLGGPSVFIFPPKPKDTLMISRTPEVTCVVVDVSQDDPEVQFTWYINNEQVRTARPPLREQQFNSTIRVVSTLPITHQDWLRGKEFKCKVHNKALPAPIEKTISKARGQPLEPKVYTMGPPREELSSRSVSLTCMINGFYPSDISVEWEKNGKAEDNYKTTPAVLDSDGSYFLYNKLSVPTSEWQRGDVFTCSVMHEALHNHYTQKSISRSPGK

Molecule CC(C)C[C@@H]1NC(=O)[C@H](CCC(=O)O)NC(=O)CNC(=O)[C@H](CCCNC(=N)N)NC(=O)[C@H](Cc2c[nH]cn2)NC(=O)[C@H](Cc2ccc(O)cc2)NC(=O)[C@H](C)NC(=O)[C@@H](NC(=O)[C@H](CC(=O)O)NC(=O)[C@@H]2CCCN2C(=O)CNC(=O)CCOCCOCCOCCOCCOCCNC(=O)CCCC[C@@H]2SC[C@@H]3NC(=O)N[C@@H]32)CSSC[C@@H](C(=O)N[C@H](C(=O)N[C@@H](Cc2ccccc2)C(=O)N[C@@H](Cc2c[nH]cn2)C(N)=O)[C@@H](C)O)NC(=O)[C@H](Cc2c[nH]c3ccccc23)NC(=O)[C@H](C(C)C)NC1=O [Type I] ({Biotin-PEG5}-GPDCAYHRGELVWCTFH-NH2; disulfide 4-14) has a ka (human IgG [1]) of 1.57E+06 and a kd (human IgG [1]) of 0.0144.
In the case of “Biotin-PEG4-RGNCAYHXGQLVWCTYH-NH2 [DSG-modified IgG-binding peptide]”, the “Fc with a larger number of peptides than two added” value (human IgG Fc; excessive molar ratio 1:5, pH 4.5) is reported as “not detected”, the “unreacted form (peak 2) produced” value (human IgG Fc; molar ratio 1:1, pH 4.5, room temperature) is reported as at most 20% and the “unreacted form (peak 2) produced” value (human IgG Fc; molar ratio 1:2, pH 4.5, room temperature) is reported as at most 10%. For the same molecule, the “yield of the adduct of two peptides (peak 4)” value (human IgG Fc; other pH cases (pH 5.5, pH 7.0), molar ratio 1.0) was 35-40%, the “part of the reaction completed within 1 minute” value (human IgG Fc; pH 4.0, pH 5.5 and pH 7.0, molar ratio 1.0, room temperature) was at least 90% and the “amount of the unreacted form remaining” value (human IgG Fc; pH 4.0, molar ratio 1.0) was “exceeded 40%”. For the same molecule, the “yield of the adduct of two peptides (peak 4)” value (human IgG Fc; pH 4.0, molar ratio 1.0) was “approximately 15%”, the “yield of the unreacted form” value (human IgG Fc; pH 5.5 and 7.0, molar ratio 1.0) was about 10% and the “fluorescence intensity compared with biotinylated anti-human IgG mouse antibody” value (4D5-Fc antibody) was “rarely differed in fluorescence intensity”. For the same molecule, the “labeling of rabbit polyclonal IgG (staining in Western blot)” value [2] was “strongly stained”, the “shift in fluorescence intensity without 4D5-Fc” value (SK-BR3 cells [3]) was “no shift in fluorescence intensity” and the “labeling of human IgG4 (band in Western blot)” value (human IgG [4]) was “dark bands”. The “labeling of human IgG2 (band in Western blot)” value (human IgG [5]) was “dark bands” and the “labeling of human IgG1 (band in Western blot)” value (human IgG [6]) was “dark bands”.
With “labeled IgG-binding peptide modified with DSS: biotinylated IgG-binding (R8K) peptide modified with cross-linking agent, prepared as in Example 2 (GDDCAYHK(DSS)GELVWCTFH-NH2; not fully specified (N-terminus); cysteine pairing not given here; also: biotinylated)” the “binding to other proteins” value [7] was “not detected”, the “reaction time at which saturation was seen” value (hIgG; IgG and peptide at molar ratio 1:2) was “approximately 15 minutes” and the “molar ratio at which saturation was seen” value (hIgG; molar ratios 1 to 10, 1 hour) was “approximately 5”.
With CC[C@H](C)[C@@H]([C@@H](CC(=O)N1CCC[C@H]1[C@H](OC)[C@@H](C)C(=O)N[C@H](C)[C@@H](O)c1ccccc1)OC)N(C)C(=O)[C@@H](NC(=O)[C@H](C(C)C)N(C)C(=O)OCc1ccc(NC(=O)[C@H](CCCNC(N)=O)NC(=O)[C@@H](NC(=O)CCCCCN2C(=O)C=CC2=O)C(C)C)cc1)C(C)C [VcMMAE, maleimidocaproyl-valine-citrulline-p-aminobenzoyloxycarbonyl-monomethyl auristatin E] ({Hexanoyl(6-maleimido)}-V[Cit][PABC][NMeV]V[Dil][Dolaproine]-X1) the “concentration giving cell growth inhibition” value (SK-BR3 cells [8]) was at least 250 nM.
